Reference: US20250064779A1, “COMPOSITIONS AND METHODS FOR THE TREATMENT OF DEPRESSION” (Janssen Pharmaceuticals, Inc., priority 2022, published 2025)
Values joined by “and” are separate entries in the source; they are usually repeats but may differ in a detail not shown here. Equal values may be shown once.

Tests used:
Type in all cases: in vivo, human
[1] = Weight change, Example 1; details: n = 85; for Mean weight, Withdrawal Baseline, mean (SE): after 6 weeks in the double-blind treatment phase
Text: At the lead-in baseline timepoint, the mean weight for subjects in the placebo group was 76.17 kg compared to 78.66 in the aticaprant group. After 6 weeks in the double-blind treatment phase, the mean weight in the placebo group was 75.75 kg compared to 78.57 kg in the aticaprant group. […] This is unexpected because other adjunctive treatments for MDD result in a mean weight increase. See, Thase M, et al. J Clin Psych. 2015: 76(9), 1224-1231; Thase, J Clin Psych. 2015, 76(9):1232-1240; El Khalili, Int J Neuropsychopharmacol. 2010, 13, 917-932; Marcus, J. Clin. Psychopharmacol. […] Nashville, Tenn, ACNP, 2008; Earley, American College of Neuropsychopharmacology, 2007, Annual Meeting Abstracts (Boca Raton, Fla, Dec. 9-13, 2007). Nashville, TN, ACNP, 2007). See, Table 29.

[2] = tested on: subjects with TRD; experiment: PHQ-9 total score, esketamine long-term study (Example 5)
Text: This is an open-label, multicenter, long-term study to evaluate the efficacy of intranasal esketamine plus a newly initiated oral antidepressant in subjects with TRD ([…] 3002/NCT02418585).
Each subject participated in up to 4 phases: up to 4-week screening phase (direct-entry subjects only), a 4-week open-label induction (IND) phase (direct-entry subjects and transferred-entry non responder subjects), a 48-week open-label optimization/maintenance (OP/MA) phase (all responder subjects from the open label IND phase of the current study, and transferred-entry responder subjects), and a 4-week follow-up phase. The maximum duration of the subject's participation in […] 3004 study was 60 weeks for direct-entry subjects; 56 weeks for transferred-entry non-responder subjects, and 52 weeks for transferred-entry responder subjects. The sample size of 750 was estimated to have at least 300 subjects received treatment with intranasal esketamine for 6 months and at least 100 subjects for 12 months. In addition, transfer-entry subjects were enrolled from 3005 study to get 100 elderly subjects dosed with esketamine. See, FIG. 30 for the trial design.
The efficacy analyses are based on the full (IND) analysis set and the full (OP/MA) analysis set. […] A total score (0 to 60) is calculated by summing the scores of all 10 items. […]

[3] = tested on: subjects with TRD; experiment: MADRS, intranasal esketamine plus oral antidepressant, open-label long-term study (Example 5)
[4] = tested on: subjects with TRD; experiment: SDS remission (functional recovery), esketamine long-term study (Example 5); details: observed case
Text: Functional recovery measured by SDS followed with some lag time after mood improvement. […] See, FIG. 32.

[5] = tested on: adjunctive MDD, including treatment-resistant MDD (TRD) and MDD with suicidal ideation (SUI); experiment: Biomarker signature (3MM, 2MM, CRP) analysis of MADRS treatment effect across clinical trials (Example 6)
Protocol: Samples of venous blood were obtained from patients and healthy control subjects from subject described in Example 5 and from the other clinical trials referenced herein. Serum or plasma was prepared from the samples of venous blood. Measurements of human CRP and IL-6-R were performed in serum using an MSD Sector 6000 with the kits #K151STD and K151ALC (MesoScale Discovery, Rockville, MD). Human TNFα was quantified in serum using a Simoa HD-1 analyzer with kit #143 (Quanterix, Lexington, MA). All measures were performed according to kit manufacturer's recommendations.
As used in the following biomarker assay analysis, treatment (TRT) refers to treatment with intranasal esketamine plus optionally an oral antidepressant and placebo (PBO) refers to treatment with a placebo plus optionally an oral antidepressant.
The following biomarker signatures were employed: • 3MM: Inflammatory biomarker signature with positive status defined by CRP >3 mg/L and (TNFα>4 pg/mL or sIL6R>25 ng/mL). • 2MM: Inflammatory biomarker signature with positive status defined by CRP >3 mg/L and sIL6R>25 ng/mL. • CRP: Inflammatory biomarker signature with positive status defined by CRP >3 mg/L/
The 3MM signature was tested in clinical trials for adjunctive MDD, including treatment-resistant MDD (TRD) and MDD with suicidal ideation (SUI). […] Significant was driven by Esketamine (ESK) TRD trials.

[6] = endpoint of OP/MA phase, responders proceeding to OP/MA
[7] = across the esketamine TRD trials, end of double blind treatment

In the case of Cc1cc(C)cc(C2CCCN2Cc2ccc(Oc3ccc(C(N)=O)cc3F)cc2)c1 (stereo not drawn) [aticaprant, 3-fluoro-4-4-2-(3,5-dimethylphenyl)pyrrolidin-1-yl-methylphenoxybenzamide], the “Mean weight, Lead-in Baseline, mean (SE)” value [1] is reported as 78.66 kg, the “Mean weight, Screening, mean (SE)” value [1] is reported as 78.42 (1.65) kg and the “Weight: Absolute Change (Withdrawal − Lead-in)” value [1] is reported as -0.09 kg. The “Weight: Relative % Change” value ([1]; Withdrawal vs Lead-in) was −0.11%, the “Mean weight, Withdrawal Baseline, mean (SE)” value [1] was 78.57 kg and the “Mean weight, Withdrawal Baseline, mean (SE)” value ([1]; listed as Aticaprant) was 78.57 (1.71) kg. For the same molecule, the “Mean weight, Lead-in Baseline, mean (SE)” value ([1]; listed as Aticaprant) was 78.66 (1.65) kg.
For CN[C@]1(c2ccccc2Cl)CCCCC1=O [esketamine, (S)-2-(2-chlorophenyl)-2-(methylamino)cyclohexanone], the “PHQ-9 total score: mean change (SD) from Baseline (IND) to End Point (IND)” value ([2]; induction phase) was −8.9 (6.67), the “PHQ-9 total score: mean change (SD) from Baseline (OP/MA) to End Point (OP/MA)” value ([2]; optimization/maintenance phase) was −0.2 (5.65) and the “MADRS total score: mean change (SD) from Baseline (IND) to End Point (IND)” value ([3]; 4-week open-label induction phase, intranasal 28/56/84 mg twice weekly) was −16.4 (8.76). For the same molecule, the “MADRS total score: mean change (SD) from Baseline (OP/MA) to End Point (OP/MA)” value ([3]; 48-week optimization/maintenance phase) was 0.3 (8.12), the “remission rate (MADRS total score ≤12)” value ([3]; End Point, IND phase) was 47.2% and the “response rate (≥50% improvement from Baseline (IND) in MADRS total score)” value ([3]; End Point, IND phase) was 78.4%. The “remitters (MADRS total score ≤12)” value [3, 6] was 58.2%, the “responders (≥50% improvement in MADRS total score)” value [3, 6] was 76.5% and the “remission rate measured by SDS” value ([4]; OP/MA phase week 4) was 25.2%. For the same molecule, the “remission rate measured by SDS” value ([4]; OP/MA phase week 48) was 51.1%, the “remission rate measured by SDS” value ([4]; endpoint of the IND phase) was 21.1% and the “treatment effect, change in MADRS, biomarker signature negative patients” value ([5]; TRD2003, Japanese patients) was 2.83 points. The “treatment effect, change in MADRS, biomarker signature positive patients” value ([5]; TRD2003, Japanese patients, small n) was 11.69 points, the “Signature advantage (difference between subtypes), 3MM” value ([5]; across the esketamine TRD trials) was 5.8 point and the “Treatment effect over placebo in 3MM biomarker signature negative subjects (TE SigNeg)” value [5, 7] was 2 MADRS points and 2.0 MADRS points. The “Treatment effect over placebo in 3MM biomarker signature positive subjects (TE SigPos)” value [5, 7] was 7.8 MADRS points and the “3MM status at baseline as predictor of treatment effect” value ([5]; esketamine trials with suicidal ideation (SUI)) was “did not predict treatment effect”.
